What was measured:
[1] = system: JEG-3 (human placental choriocarcinoma cell line); test: Cytotoxicity test (MTT assay) in JEG-3
[2] = system: JEG-3 (human placental choriocarcinoma cell line); test: Real-time RT-PCR quantification of gene expression in drug-treated JEG-3; assay type: cell-based; conditions: for Real time PCR (Relative ratio), KIAA0310: GenBank AB002308; for Real time PCR (Relative ratio), ATP10B: GenBank AB018258; for Real time PCR (Relative ratio), TTF2: GenBank AB209845; for Real time PCR (Relative ratio), TncRNA: GenBank AF001893; for Real time PCR (Relative ratio), C4orf19: GenBank AK001879; for Real time PCR (Relative ratio), CYP19A1: GenBank AK023571; for Real time PCR (Relative ratio), SLC40A1: GenBank AK023574; for Real time PCR (Relative ratio), ABTB2: GenBank AK095632; for Real time PCR (Relative ratio), TUBB3: GenBank AK122757; for Real time PCR (Relative ratio), MGC27016: GenBank AK125877; for Real time PCR (Relative ratio), GLCCI1: GenBank AK126731; for Real time PCR (Relative ratio), TFCP2L4: GenBank BC036890; for Real time PCR (Relative ratio), RGS2: GenBank BC042755; for Real time PCR (Relative ratio), SIAT7A: GenBank BC063830; for Real time PCR (Relative ratio), B7-H4: GenBank BX648021; for Real time PCR (Relative ratio), COBLL1: GenBank BX649112; for Real time PCR (Relative ratio), CGA: GenBank NM_000735; for Real time PCR (Relative ratio), PARP1: GenBank NM_001618; for Real time PCR (Relative ratio), SERPINB9: GenBank NM_004155; for Real time PCR (Relative ratio), ST8SIA4: GenBank NM_005668; for Real time PCR (Relative ratio), ABL1: GenBank NM_007313; for Real time PCR (Relative ratio), GRLF1: GenBank NM_024342; for Real time PCR (Relative ratio), LGP1: GenBank NM_032484; for Real time PCR (Relative ratio), NCOA3: GenBank NM_181659; for Real time PCR (Relative ratio), SR140: GenBank XM_031553; for Real time PCR (Relative ratio), SLC7A8: GenBank Y18483
Protocol: My IQ Real-Time PCR (Bio-Rad, USA) was performed to quantify the expressions of those genes.
Particularly, cDNA was synthesized using oligo dT primer and Superscript kit (Omniscipt™ kit, Qiagen, Co., USA) by reverse transcription. 0.2 μl of the cDNA, 3.8 μl of water, 0.5 μg of a sense primer, 0.5 μg of an antisense primer, and […] of SYBR Green I supermix (Bio-Rad, USA) were mixed, which was placed in a PCR tube, followed by real-time RT-PCR in My IQ real-time PCR machine as follows: Step 1: 95°, 3 minutes; Step 2 (45 cycles): Step 2-1: 95°, 10 seconds; Step 2-2: 55-65° 45 seconds; Step 3: 95°, 1 minute; Step 4: 55°, 1 minute; Step 5 (80 cycles): 55°, 10 seconds. SYBR green I (Bio-Rad, USA) staining was performed to quantify the PCR product. SYBR I staining is the staining method using double stranded DNA binding. So, the more double stranded DNA is generated during PCR, the stronger the fluorescence intensity becomes. First, target gene and endogenous control (GAPDH) primers were added to SYBR green master mix, followed by PCR. Then, primer optimization was performed to determine a proper concentration. Synthesized cDNA and each primer were mixed (Table 4), to which SYBR master mix was added, followed by PCR.

Row | SMILES | Real time PCR (Relative ratio), KIAA0310 [2] | Real time PCR (Relative ratio), ATP10B [2] | Real time PCR (Relative ratio), TTF2 [2] | Real time PCR (Relative ratio), TncRNA [2] | Real time PCR (Relative ratio), C4orf19 [2] | Real time PCR (Relative ratio), CYP19A1 [2] | Real time PCR (Relative ratio), SLC40A1 [2] | Real time PCR (Relative ratio), ABTB2 [2] | Real time PCR (Relative ratio), TUBB3 [2] | Real time PCR (Relative ratio), MGC27016 [2] | Real time PCR (Relative ratio), GLCCI1 [2] | Real time PCR (Relative ratio), TFCP2L4 [2] | Real time PCR (Relative ratio), RGS2 [2] | Real time PCR (Relative ratio), SIAT7A [2] | Real time PCR (Relative ratio), B7-H4 [2] | Real time PCR (Relative ratio), COBLL1 [2] | Real time PCR (Relative ratio), CGA [2] | Real time PCR (Relative ratio), PARP1 [2] | Real time PCR (Relative ratio), SERPINB9 [2] | Real time PCR (Relative ratio), ST8SIA4 [2] | other results
1 | CN(Cc1cnc2nc(N)nc(N)c2n1)c1ccc(C(=O)N[C@@H](CCC(=O)O)C(=O)O)cc1 [MTX, methotrexate] | 3.9217 | 2.6467 | 1.9659 | 2.2297 | 36.2463 | 1.7007 | 6.0098 | 0.1356 | 4.7892 | 2.3343 | 2.5941 | 0.7146 | 5.6716 | 8.3865 | 0.4198 | 1.4978 | 0.0829 | 0.2381 | 1.5208 | 0.955 | cytotoxicity to JEG-3 ([1]; FIGS. 1, 2 and 3): confirmed to have toxicity; IC30 (concentration shows 70% survival rate) ([1]; JEG-3, 48 hours, MTT, FIG. 1): 4.570 mM; Real time PCR (Relative ratio), ABL1 [2]: 0.5159; Real time PCR (Relative ratio), GRLF1 [2]: 0.7048; Real time PCR (Relative ratio), LGP1 [2]: 0.6468; Real time PCR (Relative ratio), NCOA3 [2]: 2.4457; Real time PCR (Relative ratio), SR140 [2]: 0.1357; Real time PCR (Relative ratio), SLC7A8 [2]: 2.8779
2 | CCCC(CCC)C(=O)O [VPA, valproic acid] | 5.7397 | 2.7083 | 1.6637 | 1.8204 | 2.9592 | 2.15 | 1.9425 | 4.0469 | 1.9015 | 2.3155 | 1.6023 | 2.292 | 2.8779 | 4.5249 | 0.0755 | 12.2271 | 2.6497 | 0.7443 | 7.1977 | 3.7161 | Real time PCR (Relative ratio), ABL1 [2]: 0.8681; Real time PCR (Relative ratio), GRLF1 [2]: 0.8281; Real time PCR (Relative ratio), LGP1 [2]: 0.4982; Real time PCR (Relative ratio), NCOA3 [2]: 2.1913; Real time PCR (Relative ratio), SR140 [2]: 0.3565; Real time PCR (Relative ratio), SLC7A8 [2]: 6.3157
